Measurements reported in patent US8222242B2, “Nitric oxide releasing compounds” (The Regents of the University of California, priority 2008, dated 2012).
Where two headings read alike, the source gives them in different places.

How the values were obtained:
D. melanogaster = test: Viability of injected D. melanogaster; details: 1 μl injected; 1 mM (ascorbic acid 5 mM); observed 48 h
Procedure: (A) Tubular secretion rates of Malpighian tubules isolated from D. melanogaster were measured, using half-strength Schneider's medium. Basal tubular secretion was measured at 0, 10, and 20 minutes; at 20 minutes (depicted by the arrow) 1 mM cobinamide (Cbi, open circles), 1 mM NO-Cbi (filled circles), 0.5 mM Deta-NONOate (diamonds), or 100 μM 8-CPT-cGMP (inverted triangles) were added. Results are the mean±S.D. of three independent experiments performed on Malpighian tubule pairs from 10 flies. […] (B). Flies were injected with 1 μl of 1 mM cobinamide (Cbi, open circles), 1 mM NO-Cbi (filled circles), 0.5 mM Deta-NONOate (diamonds), or 1 mM spermine NONOate (squares). […] The data are plotted as a Kaplan-Meier survival curve, and are the mean±SD of three experiments, with 10 flies per condition per experiment. […] (C). Flies were injected with 1 μl of water (control, open bar), 1 mM cobinamide (Cbi, grey bar), or 1 mM NO-Cbi (black bars). Flies were killed and extracts were prepared at 3 hours for the water- and cobinamide-injected flies, and at the indicated times for the NO-Cbi-injected flies. Nitrite and nitrate in the extracts were measured using an enhanced Griess reagent.
The fluid volume of a fly is […], and thus, the injected agent was diluted about 10-fold. […]

[1] = for change of spectrum: room temperature, open to air
Procedure: NO-Cbi was diluted 100-fold into DMEM containing 10% FBS, transferred to a cuvette, and analyzed immediately by spectrophotometry between 300 and 600 nm (curve a). Spectra were obtained every 30 minutes for 3 hours, generating the family of curves, with curve b being the 3 hour spectrum; in the inset, curve b is the spectrum at 16 hours. The cuvette was open to air and kept at room temperature. The same experiment was repeated two times with similar results.
NO-Cbi was diluted 100-fold in water, PBS, or DMEM containing 10% FBS to a final concentration of 50 uM. It was analyzed spectrophotometrically between 300 and 600 nm in a Kontron 860 spectrophotometer, and by mass spectroscopy using a LCQ classic ion-trap-type mass spectrometer (Thermo-Finnigan) at 160° C. capillary temperature and 5000V spray voltage. The mass spectrometry data were acquired in profile mode and analyzed on Xcalibur software.

mouse aortic rings = test: Relaxation of mouse aortic rings constricted with prostaglandin F2α; details: rings pretreated with 2 μM prostaglandin F2α; read-out: EC50, concentration that induced half-maximal relaxation
Procedure: Hearts and aortas were removed from NIH Swiss mice anesthetized with sodium nembutal, and coronary flow was measured in the hearts using a Langendorff preparation (FIG. 5a) and relaxation of aortic rings was measured after inducing constriction of the rings with prostaglandin F2α (FIG. 5b). The hearts and aortic rings were treated with a range of concentrations of NO-Cbi (filled circles), nitroglycerin (open circles, dotted line, FIG. 5a), and sodium nitroprusside (open circles, FIG. 5b). Coronary flow was measured on the same hearts for both NO-Cbi and nitroglycerin after an appropriate wash-out period between drugs, and aortic ring relaxation was measured on two rings from the same aorta for NO-Cbi and sodium nitroprusside. The data are the mean of two independent experiments performed on two separate hearts in each experiment (FIG. 5a), and the mean±SEM of two independent experiments performed on three separate aortic rings in each experiment (FIG. 5b).
Relaxation of aortic contraction was measured in 3 mm rings cut from thoracic aortas of mice; the rings were pretreated with 2 μM prostaglandin F2α to produce 0.5-1 g of active tension.

[2] = test system: vasodilator-stimulated phosphoprotein (VASP) phosphorylated on Ser239 in CS-54 rat vascular smooth muscle cells; test: VASP phosphorylation in CS-54 cells (immunoblot); format: cell-based
Procedure: CS-54 rat vascular smooth muscle cells were treated with the indicated concentrations of NO-Cbi for 1 hour (A), or 10 μM NO-Cbi for the indicated times (B and C). […] In A and B, “Con” refers to control, which was cells treated with water. As indicated, the effects of 30 μM cobinamide (Cbi) and 100 μM 8-CPT-cGMP (cGMP) are shown for comparison. In A and B, similar results were obtained in two other experiments.
Briefly, cells treated with an NO-releasing agent were extracted rapidly in a sodium dodecyl sulfate (SDS) containing sample buffer, and the cell extracts were subjected to SDS-polyacrylamide gel electrophoresis. Phospho-VASP was assessed by immunoblotting using an antibody specific for VASP phosphorylated on Ser259 (Smolenski A et al. (1998) J. Biol. Chem. 273:20029-35).
To determine if NO released from NO-Cbi can have a physiologic effect in cultured cells, vasodilator-stimulated phosphoprotein (VASP) phosphorylation was assessed in CS-54 cells.

mice = format: in vivo, mouse; details: 0.6 nmol three times at 32 minute intervals
[3] = test system: Malpighian tubules isolated from D. melanogaster; test: Malpighian tubule fluid secretion; parameters: species or system Drosophila melanogaster
Procedure: Malpighian tubules are the osmoregulatory organs of D. melanogaster, corresponding to vertebrate kidneys. Tubular fluid secretion is stimulated by NO and cGMP, and fluid secretion rates were measured as described previously (Broderick K E et al. (2005) J. Biol. Chem. 280:8678-85). Briefly, the Malpighian tubule pair of a fly was resected and suspended in mineral oil. […]
Malpighian tubules are an excellent model for studying the effects of a drug on an intact organ system (Broderick K E et al. (2003) Am. J. Physiol. Cell Physiol. 285:C1207-18). […] Deta-NONOate may not be affected as much by cysteine in the medium, because it has a slower NO release rate and the intact drug can be transported intracellularly before much NO is released.

rabbits = test: Tissue hemoglobin and cytochrome c oxidase in rabbit muscle and brain (DOS, continuous wave near-infrared spectroscopy); format: in vivo
Procedure: NO-Cbi at a dose of 5 μg/kg/min (4.8 nmol/kg/min) was given to a 4 kg rabbit starting at 2 minutes and ending at 11.5 minutes; the drug's effect was monitored by diffuse optical spectroscopy (DOS) over the left thigh muscle. […] All of these changes reversed within 1 minute of stopping the NO-Cbi with a small overshoot in both the oxy- and deoxyhemoglobin concentrations.
NO-Cbi was given to a 3.9 kg rabbit at doses of 6.87, 3.44, and 1.72 μg/kg/min (6.6, 3.3, 1.7 nmol/kg/min), as indicated in the brown rectangular boxes corresponding to drug infusion rates of 1.8, 0.9, and 0.45 ml/min, respectively. Infusion times were for 10 minutes, followed by a 20 minute wash-out period. Oxy-, deoxy- and total hemoglobin concentrations were monitored in the brain by continuous wave near-infrared spectroscopy; changes in hemoglobin concentration are shown as relative units, because continuous wave spectroscopy is not quantitative due to light loss from scattering. As occurred in peripheral muscle (FIG. 7), NO-Cbi caused the deoxyhemoglobin concentration to increase and the oxyhemoglobin concentration to decrease. […] The gradual decrease in total hemoglobin over time was from blood sampling for blood gases and blood hemoglobin content. A dose response effect of NO-Cbi on all three hemoglobin concentration changes can be seen.
Continuous intravenous NO-Cbi infusions were performed in anesthetized rabbits with systemic hemodynamic monitoring, continuous gas exchange analysis, and diffuse optical spectroscopy (DOS) and continuous wave near-infrared spectroscopy monitoring. DOS monitoring was over muscle as a representation of peripheral tissue, and continuous wave spectroscopy was over muscle and brain region. Six animals have been studied to date, varying NO-Cbi infusion rates in each animal between 1.7 and 6.9 μg/kg/min (1.6 and 6.7 nmol/kg/min).

[4] = test system: CS-54 rat vascular smooth muscle cells
Procedure: CS-54 rat vascular smooth muscle cells were treated with the indicated concentrations of NO-Cbi for 1 hour (A), or 10 μM NO-Cbi for the indicated times (B and C). […] (C) Cell extracts were clarified by centrifugation, and nitrite and nitrate in the extracts were measured by an enhanced Griess reagent method. In A and B, “Con” refers to control, which was cells treated with water. As indicated, the effects of 30 μM cobinamide (Cbi) and 100 μM 8-CPT-cGMP (cGMP) are shown for comparison. In A and B, similar results were obtained in two other experiments.
Nitrite and nitrate were measured in CS-54 cell extracts and fly extracts using a kit from Active Motif based on an enhanced Griess reagent, as described previously (Broderick K E et al. (2006) FASEB J. 20:1865-73).

**Q.** With `CC1=C2[N+]3=C(C=C4[N+]5=C(C(C)=C6[N]7C(C(CC(N)=O)C6(C)CCC(=O)NCC(C)O)C6(C)[N+](=C1C(CCC(N)=O)C6(C)CC(N)=O)[Co-3]753[N]=O)C(CCC(N)=O)C4(C)C)C(CCC(N)=O)C2(C)CC(N)=O` (stereo not shown) [NO-Cbi, nitrosyl cobinamide] as the compound, how does the “fly killing / toxicity to flies” value (D. melanogaster) read?
**A.** killed the flies as effectively as 1 mM spermine NONOate

**Q.** And the “time for spectrum to change to that of cobinamide” value ([1]; DMEM containing 10% FBS)?
**A.** about 3 h

**Q.** What about the “effect on NO-Cbi's half-life” value ([1]; buffer) of the same compound?
**A.** significantly reduced

**Q.** What about the half-life ([1]; buffer) of the same compound?
**A.** ~1.5 h

**Q.** What about the change of spectrum ([1]; phosphate-buffered saline (PBS)) of the same compound?
**A.** little spectral change

**Q.** What about the change of spectrum ([1]; water, 16 hours) of the same compound?
**A.** did not change

**Q.** What about the EC50 (mouse aortic rings) of the same compound?
**A.** 195 ± 12 nM

**Q.** And the “course of VASP phosphorylation after the maximum” value ([2]; 10 μM NO-Cbi)?
**A.** declined over the ensuing 4 hours

**Q.** And the “time at which effect on VASP phosphorylation could be observed” value ([2]; 10 μM NO-Cbi)?
**A.** 15 min

**Q.** What about the “time of maximal effect on VASP phosphorylation” value ([2]; 10 μM NO-Cbi) of the same compound?
**A.** 30 to 60 min

**Q.** And the VASP phosphorylation ([2]; 1 to 30 μM, 1 hour, CS-54 cells)?
**A.** induced VASP phosphorylation

**Q.** And the “blood pressure and heart rate on repeated injections” value (mice)?
**A.** a decrease in blood pressure and increase in heart rate was observed with each injection

**Q.** What about the “rate of tubular secretion relative to cobinamide-treated tubules” value ([3]; 1 mM, 70 minute time point (50 minutes after adding drugs), half-strength Schneider's medium) of the same compound?
**A.** 1.6 times

**Q.** And the fluid secretion ([3]; 1 mM, half-strength Schneider's medium)?
**A.** stimulated fluid secretion to a similar extent as 100 μM 8-CPT-cGMP, but somewhat less than 500 μM Deta-NONOate

**Q.** And the fluid secretion ([3]; full strength of Schneider's medium)?
**A.** no effect

**Q.** And the “time for changes to reverse after stopping NO-Cbi” value (rabbits; 5 μg/kg/min, thigh muscle, DOS)?
**A.** ≤ 1 min

**Q.** And the total tissue hemoglobin (rabbits; brain)?
**A.** increased slightly in brain

**Q.** And the deoxyhemoglobin concentrations (rabbits; brain and muscle)?
**A.** increased deoxyhemoglobin concentrations

**Q.** What about the hemoglobin oxygen saturation (rabbits; brain and muscle) of the same compound?
**A.** decrease in hemoglobin oxygen saturation

**Q.** What about the tissue oxyhemoglobin concentrations (rabbits; brain and muscle) of the same compound?
**A.** decreased tissue oxyhemoglobin concentrations

**Q.** And the cytochrome redox state (rabbits; muscle)?
**A.** decreasing the cytochrome redox state

**Q.** What about the total tissue hemoglobin (rabbits; muscle) of the same compound?
**A.** decreased slightly in muscle

**Q.** What about the “increased nitrite and nitrate as share of the NO added as NO-Cbi” value ([4]; 10 μM NO-Cbi, CS-54 cells) of the same compound?
**A.** 55%

**Q.** What about the “nitrite and nitrate in the culture medium” value ([4]; 10 μM NO-Cbi, CS-54 cells) of the same compound?
**A.** increased nitrite and nitrate

**Q.** What about the “half-life of NO-Cbi estimated from nitrite and nitrate accumulation” value ([4]; rat) of the same compound?
**A.** 0.5 h and 1 h
